Data: the NIST ThermoML archive (doi:10.1016/j.jct.2014.01.012)
Numbers after ± are expanded uncertainties.

Assay: xn = mol fraction of the nth substance listed
Conditions: 101 kPa, Liquid; for speed of sound: Sing-around technique in a fixed-path interferometer; for mass density: Vibrating tube method

CCCCCCn1cc[n+](C)c1.F[P-](F)(F)(F)(F)F [1-hexyl-3-methylimidazolium hexafluorophosphate] + CCOC(C)=O
Conditions	mass density [kg/m3]	speed of sound [m/s]
293.15 K, x1 = 0.09053	985.573 ± 0.22	1203.8 ± 1.3
293.15 K, x1 = 0.1751	1047.27 ± 0.3	1245.1 ± 1.4
293.15 K, x1 = 0.2748	1103.27 ± 0.49	1278.6 ± 1.6
293.15 K, x1 = 0.3638	1142.32 ± 0.72	1312.1 ± 1.8
293.15 K, x1 = 0.4747	1181.82 ± 1.1	1341.9 ± 2
293.15 K, x1 = 0.5959	1215.82 ± 1.6	1369.5 ± 2.3
293.15 K, x1 = 0.6988	1239.42 ± 2.1	1390.2 ± 2.5
293.15 K, x1 = 0.7782	1254.92 ± 2.6	1404.4 ± 2.7
293.15 K, x1 = 0.8784	1272.57 ± 3.3	1417.2 ± 2.9
293.15 K, x1 = 0.9562	1285.17 ± 3.8	1428.1 ± 3.1
293.15 K, x1 = 1	1291.38 ± 4.2	1436.9 ± 3.2
298.15 K, x1 = 0.09053	980.708 ± 0.23	1182.9 ± 1.3
298.15 K, x1 = 0.1751	1042.71 ± 0.29	1226 ± 1.4
298.15 K, x1 = 0.2748	1098.95 ± 0.48	1260.9 ± 1.6
298.15 K, x1 = 0.3638	1138.08 ± 0.72	1295.7 ± 1.8
298.15 K, x1 = 0.4747	1177.55 ± 1.1	1326.9 ± 2
298.15 K, x1 = 0.5959	1211.68 ± 1.6	1355.6 ± 2.3
298.15 K, x1 = 0.6988	1235.47 ± 2.1	1376.8 ± 2.5
298.15 K, x1 = 0.7782	1251.3 ± 2.6	1388.5 ± 2.7
298.15 K, x1 = 0.8784	1269.1 ± 3.2	1402.5 ± 2.9
298.15 K, x1 = 0.9562	1281.27 ± 3.8	1414.1 ± 3.1
298.15 K, x1 = 1	1287.34 ± 4.1	1423.5 ± 3.2
303.15 K, x1 = 0.09053	975.56 ± 0.23	1162.1 ± 1.3
303.15 K, x1 = 0.1751	1037.99 ± 0.29	1207 ± 1.4
303.15 K, x1 = 0.2748	1094.55 ± 0.48	1243.1 ± 1.6
303.15 K, x1 = 0.3638	1133.41 ± 0.71	1279.1 ± 1.8
303.15 K, x1 = 0.4747	1173.05 ± 1.1	1312.1 ± 2
303.15 K, x1 = 0.5959	1207.51 ± 1.6	1341.7 ± 2.3
303.15 K, x1 = 0.6988	1231.55 ± 2.1	1363.6 ± 2.5
303.15 K, x1 = 0.7782	1247.62 ± 2.6	1375.4 ± 2.7
303.15 K, x1 = 0.8784	1265.46 ± 3.2	1388.1 ± 2.9
303.15 K, x1 = 0.9562	1277.49 ± 3.8	1402.6 ± 3.1
303.15 K, x1 = 1	1283.29 ± 4.1	1410.6 ± 3.2
308.15 K, x1 = 0.09053	970.46 ± 0.23	1141.5 ± 1.3
308.15 K, x1 = 0.1751	1033.19 ± 0.29	1188.2 ± 1.4
308.15 K, x1 = 0.2748	1089.85 ± 0.47	1225.7 ± 1.6
308.15 K, x1 = 0.3638	1128.89 ± 0.7	1261.3 ± 1.8
308.15 K, x1 = 0.4747	1168.92 ± 1.1	1297.4 ± 2
308.15 K, x1 = 0.5959	1203.51 ± 1.6	1328 ± 2.3
308.15 K, x1 = 0.6988	1227.75 ± 2.1	1350.6 ± 2.5
308.15 K, x1 = 0.7782	1243.95 ± 2.5	1365 ± 2.7
308.15 K, x1 = 0.8784	1261.82 ± 3.2	1375.1 ± 2.9
308.15 K, x1 = 0.9562	1273.69 ± 3.8	1391 ± 3.1
308.15 K, x1 = 1	1279.4 ± 4.1	1398.2 ± 3.2
313.15 K, x1 = 0.09053	964.46 ± 0.23	1120.9 ± 1.3
313.15 K, x1 = 0.1751	1027.59 ± 0.28	1169.4 ± 1.4
313.15 K, x1 = 0.2748	1084.79 ± 0.47	1208.5 ± 1.6
313.15 K, x1 = 0.3638	1124.28 ± 0.7	1246.5 ± 1.8
313.15 K, x1 = 0.4747	1164.75 ± 1.1	1282.8 ± 2
313.15 K, x1 = 0.5959	1199.65 ± 1.6	1313.8 ± 2.3
313.15 K, x1 = 0.6988	1224.15 ± 2.1	1337.7 ± 2.5
313.15 K, x1 = 0.7782	1240.32 ± 2.5	1349.8 ± 2.7
313.15 K, x1 = 0.8784	1258.46 ± 3.2	1359.6 ± 2.9
313.15 K, x1 = 0.9562	1270.35 ± 3.7	1378 ± 3.1
313.15 K, x1 = 1	1275.48 ± 4.1	1386 ± 3.2
318.15 K, x1 = 0.09053	960.532 ± 0.23	1100.5 ± 1.3
318.15 K, x1 = 0.1751	1023.8 ± 0.28	1150.8 ± 1.4
318.15 K, x1 = 0.2748	1080.46 ± 0.46	1191.3 ± 1.6
318.15 K, x1 = 0.3638	1119.61 ± 0.69	1231.9 ± 1.8
318.15 K, x1 = 0.4747	1160.23 ± 1.1	1268.4 ± 2
318.15 K, x1 = 0.5959	1195.59 ± 1.6	1300.3 ± 2.3
318.15 K, x1 = 0.6988	1220.56 ± 2.1	1324.8 ± 2.5
318.15 K, x1 = 0.7782	1236.86 ± 2.5	1337.1 ± 2.7
318.15 K, x1 = 0.8784	1254.52 ± 3.2	1348.4 ± 2.9
318.15 K, x1 = 0.9562	1266.02 ± 3.7	1366 ± 3.1
318.15 K, x1 = 1	1271.56 ± 4	1374.2 ± 3.2
323.15 K, x1 = 0.09053	955.246 ± 0.24	1080.2 ± 1.3
323.15 K, x1 = 0.1751	1018.76 ± 0.28	1132.3 ± 1.4
323.15 K, x1 = 0.2748	1075.54 ± 0.46	1174.3 ± 1.6
323.15 K, x1 = 0.3638	1114.9 ± 0.68	1216.3 ± 1.8
323.15 K, x1 = 0.4747	1155.92 ± 1	1254.2 ± 2
323.15 K, x1 = 0.5959	1191.86 ± 1.5	1287.2 ± 2.3
323.15 K, x1 = 0.6988	1217.05 ± 2.1	1311.7 ± 2.5
323.15 K, x1 = 0.7782	1233.69 ± 2.5	1324.4 ± 2.7
323.15 K, x1 = 0.8784	1251.25 ± 3.1	1335.4 ± 2.9
323.15 K, x1 = 0.9562	1262.25 ± 3.7	1355.1 ± 3.1
323.15 K, x1 = 1	1267.63 ± 4	1362.5 ± 3.2
